The source made the active and inactive calls. No cut-off for these calls is given here.
What was measured:
[1] = Cytotoxicity against human HL-7702 cells at 2.5 uM by MTT assay; type: cell-based; conditions: l02, 2.5 µM, TDE = time-dependent effect
Bel-7402 [2] = assay: Induction of apoptosis in human Bel7402 cells assessed as early apoptotic cells at 2.5 uM after 48 hrs by annexin V-FITC/propidium iodide staining based flow cytometry (reference value: 6.9 %); type: functional
[3] = Induction of apoptosis in human HL-7702 cells assessed as late apoptotic cells at 2.5 uM after 48 hrs by annexin V-FITC/propidium iodide staining based flow cytometry (Rvb =8.6 %); type: cell-based; conditions: l02, 48 h
OVCAR-3 = assay: Cytotoxicity against human OVCAR3 cells after 72 hrs by MTT assay; type: functional, cell-based; conditions: OVCAR-3, 72 h
[4] = Cell cycle arrest in human HL-7702 cells assessed as accumulation at G2/M phase by FACS flow cytometry; type: cell-based; conditions: l02
MCF7 = assay: Cytotoxicity against human MCF7 cells after 72 hrs by MTT assay; type: functional, cell-based; conditions: MCF7, 72 h
DU-145 = assay: Cytotoxicity against human DU145 cells after 72 hrs by MTT assay; type: functional, cell-based; conditions: DU-145, 72 h
Bel-7402 [5] = assay: Cell cycle arrest in human Bel7402 cells assessed as accumulation at G1 phase by FACS flow cytometry; type: functional
Bel-7402 [6] = assay: Cell cycle arrest in human Bel7402 cells assessed as accumulation at sub-G1 phase by FACS flow cytometry; type: functional
Caco-2 = assay: Cytotoxicity against human Caco2 cells after 72 hrs by MTT assay; type: functional, cell-based; conditions: Caco-2, 72 h
HCT-116 = assay: Cytotoxicity against human HCT116 cells after 72 hrs by MTT assay; type: functional, cell-based; conditions: HCT-116, 72 h
[7] = Cytotoxicity against human HL-7702 cells after 72 hrs by MTT assay; type: cell-based; conditions: L02, 72 h
Bel-7402 [8] = assay: Induction of apoptosis in human Bel7402 cells assessed as early apoptotic cells at 2.5 uM after 12 hrs by annexin V-FITC/propidium iodide staining based flow cytometry (reference value: 3.2 %); type: functional
Bel-7402 [9] = assay: Induction of apoptosis in human Bel7402 cells assessed as late apoptotic cells at 2.5 uM after 24 hrs by annexin V-FITC/propidium iodide staining based flow cytometry (reference value: 7.5 %); type: functional
MKN-45 = assay: Cytotoxicity against human MKN45 cells after 72 hrs by MTT assay; type: functional, cell-based; conditions: MKN-45, 72 h
[10] = Cell cycle arrest in human HL-7702 cells assessed as accumulation at sub-G1 phase by FACS flow cytometry; type: cell-based; conditions: l02
Bel-7402 [11] = assay: Induction of apoptosis in human Bel7402 cells assessed as increase in caspase 8 levels; type: functional, cell-based
[12] = […] of Cdc25A expression in human HL-7702 cells assessed as reduction in mRNA level at 2.5 uM after 12 to 48 hrs by RT-PCR analysis; type: ADME, cell-based; conditions: l02, 2.5 µM
NCI-H157 = assay: Cytotoxicity against human NCI-H157 cells after 72 hrs by MTT assay; type: functional, cell-based; conditions: NCI-H157, 72 h
Bel-7402 [13] = assay: Cytotoxicity against human Bel7402 cells measured for 72 hrs by MTT assay; type: functional, cell-based
SGC-7901 = assay: Cytotoxicity against human SGC7901 cells after 72 hrs by MTT assay; type: functional, cell-based; conditions: SGC-7901, 72 h
[14] = Induction of apoptosis in human HL-7702 cells assessed as early apoptotic cells at 2.5 uM after 48 hrs by annexin V-FITC/propidium iodide staining based flow cytometry (Rvb =6.7 %); type: cell-based; conditions: l02, 48 h
Bel-7402 [15] = assay: Cell cycle arrest in human Bel7402 cells assessed as accumulation at G2/M phase by FACS flow cytometry; type: functional
NCI-H446 = assay: Cytotoxicity against human NCI-H446 cells after 72 hrs by MTT assay; type: functional, cell-based; conditions: NCI-H446, 72 h
HepG2 = assay: Cytotoxicity against human HepG2 cells after 72 hrs by MTT assay; type: functional, cell-based; conditions: HepG2, 72 h
[16] = Cell cycle arrest in human HL-7702 cells assessed as accumulation at S phase by FACS flow cytometry; type: ADME, cell-based; conditions: l02
Bel-7402 [17] = assay: Induction of apoptosis in human Bel7402 cells assessed as late apoptotic cells at 2.5 uM after 12 hrs by annexin V-FITC/propidium iodide staining based flow cytometry (reference value: 5.5 %); type: functional
[18] = Cell cycle arrest in human HL-7702 cells assessed as accumulation at G1 phase by FACS flow cytometry; type: cell-based; conditions: l02
[19] = Cytotoxicity against human LTEP-A2 cells after 72 hrs by MTT assay; type: functional, cell-based; conditions: LTEP-A2, 72 h
Bel-7402 [20] = assay: Induction of apoptosis in human Bel7402 cells assessed as early apoptotic cells at 2.5 uM after 24 hrs by annexin V-FITC/propidium iodide staining based flow cytometry (reference value: 3.8 %); type: functional
Bel-7402 [21] = assay: Induction of apoptosis in human Bel7402 cells assessed as late apoptotic cells at 2.5 uM after 48 hrs by annexin V-FITC/propidium iodide staining based flow cytometry (reference value: 3.7 %); type: functional
NCI-H460 = assay: Cytotoxicity against human H460 cells after 72 hrs by MTT assay; type: functional, cell-based; conditions: NCI-H460, 72 h
A549 = assay: Cytotoxicity against human A549 cells after 72 hrs by MTT assay; type: functional, cell-based; conditions: A549, 72 h
Bel-7402 [22] = assay: Cytotoxicity against human Bel7402 cells after 72 hrs by MTT assay; type: functional, cell-based; conditions: Bel-7402, 72 h
[23] = Cytotoxicity against human HL-7702 cells measured for 72 hrs by MTT assay; type: cell-based; conditions: l02, 72 h
Bel-7402 [24] = assay: Cytotoxicity against human Bel7402 cells at 2.5 uM by MTT assay; type: functional, cell-based; conditions: TDE = time-dependent effect
Bcap37 = assay: Cytotoxicity against human Bcap37 cells after 72 hrs by MTT assay; type: functional, cell-based; conditions: Bcap37, 72 h

With `C[C@@H]1O[C@@H](O[C@H]2[C@H](O[C@H]3CO[C@@H](O[C@H]4CC[C@]5(C)[C@H]6CC[C@]78OC[C@@]9(CCC(C)(C)C[C@H]97)[C@H](O)C[C@@]8(C)[C@]6(C)CC[C@H]5C4(C)C)[C@H](O[C@@H]4O[C@H](CO)[C@@H](O)[C@H](O)[C@H]4O)[C@H]3O)O[C@H](CO)[C@@H](O)[C@@H]2O)[C@H](O)[C@H](O)[C@H]1O` the Activity [1] was “tde”, the Activity (Bel-7402 [2]) was 16.1% and the Activity [3] was 8.9%. For the same compound, the IC50 (OVCAR-3) was 8.22 µM, the Activity [4] was 12.3% and the IC50 (MCF7) was greater than 10 µM. For the same compound, the IC50 (DU-145) was 5.47 µM, the Activity (Bel-7402 [5]) was 76.6% and the Activity (Bel-7402 [6]) was 48.4%. It also gave an IC50 (Caco-2) of 7.66 µM, an IC50 (HCT-116) greater than 10 µM and an IC50 [7] greater than 100 µM. The Activity (Bel-7402 [8]) was 36.5%, the Activity (Bel-7402 [9]) was 3.4% and the IC50 (MKN-45) was 6.23 µM. The Activity [10] was less than 1%, the Activity (Bel-7402 [11]) was “Active” and the Activity [12] was “Toxic”. The IC50 (NCI-H157) was 5.21 µM, the Activity (Bel-7402 [13]) was “Dose-dependent effect” and the IC50 (SGC-7901) was 5.88 µM. For the same compound, the Activity [14] was 7.2%, the Activity (Bel-7402 [15]) was 23.4% and the IC50 (NCI-H446) was 7.74 µM. For the same compound, the IC50 (HepG2) was 3.17 µM, the Activity [16] was 19.7% and the Activity (Bel-7402 [17]) was 5.3%. It also gave an Activity [18] of 67.3%, an IC50 [19] of 7.92 µM and an Activity (Bel-7402 [20]) of 42.3%. It also gave an Activity (Bel-7402 [21]) of 36.7%, an IC50 (NCI-H460) greater than 10 µM and an IC50 (A549) of 4.41 µM. The IC50 (Bel-7402 [22]) was 1.18 µM, the Activity [23] was “Dose-dependent effect” and the Activity (Bel-7402 [24]) was “tde”. It also gave an IC50 (Bcap37) greater than 10 µM.

`CC1(C)CC[C@]23CO[C@@]4(CC[C@@H]5[C@@]6(C)CC[C@H](O[C@@H]7OC[C@H](O[C@@H]8O[C@H](CO)[C@@H](O)[C@H](O)[C@H]8O[C@@H]8OC[C@@H](O)[C@H](O)[C@H]8O)[C@H](O)[C@H]7O)C(C)(C)[C@@H]6CC[C@@]5(C)[C@]4(C)C[C@H]2O)[C@@H]3C1` [ARDISIANOSIDE D] gave an IC50 [7] greater than 100 µM, an IC50 (HepG2) of 31.2 µM and an IC50 (Bel-7402 [22]) of 14.8 µM.

Compound `C[C@@H]1O[C@@H](O[C@H]2[C@H](O[C@H]3CO[C@@H](O[C@H]4CC[C@]5(C)[C@H]6CC[C@]78OC[C@@]9(CC[C@](C)(O)C[C@H]97)[C@H](O)C[C@@]8(C)[C@]6(C)CC[C@H]5C4(C)C)[C@H](O[C@@H]4O[C@H](CO)[C@@H](O)[C@H](O)[C@H]4O)[C@H]3O)O[C@H](CO)[C@@H](O)[C@@H]2O)[C@H](O)[C@H](O)[C@H]1O` [ARDISIANOSIDE G] has an IC50 [7] greater than 100 µM, an IC50 (HepG2) greater than 100 µM and an IC50 (Bel-7402 [22]) greater than 100 µM.

In the case of `CC1(C)CC[C@]23C(=O)O[C@@]4(CC[C@@H]5[C@@]6(C)CC[C@H](O[C@@H]7OC[C@H](O[C@@H]8O[C@H](CO)[C@@H](O)[C@H](O[C@@H]9O[C@H](CO)[C@@H](O[C@@H]%10O[C@H](CO)[C@@H](O)[C@H](O)[C@H]%10O)[C@H](O[C@@H]%10O[C@H](CO)[C@@H](O)[C@H](O)[C@H]%10O)[C@H]9O)[C@H]8O[C@@H]8OC[C@@H](O)[C@H](O)[C@H]8O)[C@H](O)[C@H]7O[C@@H]7O[C@H](CO)[C@@H](O)[C@H](O)[C@H]7O)C(C)(C)[C@@H]6CC[C@@]5(C)[C@]4(C)C[C@H]2O)[C@@H]3C1` [ARDISIANOSIDE H], the IC50 [7] is reported as greater than 100 µM, the IC50 (HepG2) is reported as greater than 100 µM and the IC50 (Bel-7402 [22]) is reported as greater than 100 µM.

In the case of `C[C@@H]1O[C@@H](O[C@H]2[C@H](O[C@H]3CO[C@@H](O[C@H]4CC[C@]5(C)[C@H]6CC[C@]78OC(=O)[C@@]9(CC[C@](C)(CO)C[C@H]97)[C@H](O)C[C@@]8(C)[C@]6(C)CC[C@H]5C4(C)C)[C@H](O[C@@H]4O[C@H](CO)[C@@H](O)[C@H](O)[C@H]4O)[C@H]3O)O[C@H](CO)[C@@H](O)[C@@H]2O)[C@H](O)[C@H](O)[C@H]1O` [ARDISIANOSIDE I], the IC50 [7] is reported as greater than 100 µM, the IC50 (HepG2) is reported as greater than 100 µM and the IC50 (Bel-7402 [22]) is reported as greater than 100 µM.

Compound `C[C@@H]1O[C@@H](O[C@H]2[C@H](O[C@H]3CO[C@@H](O[C@H]4CC[C@]5(C)[C@H]6CC=C7[C@@H]8C[C@@](C)(CO)CC[C@]8(CO)[C@@H]8O[C@@H]8[C@@]7(C)[C@]6(C)CC[C@H]5C4(C)C)[C@H](O[C@@H]4O[C@H](CO)[C@@H](O)[C@H](O)[C@H]4O)[C@H]3O)O[C@H](CO)[C@@H](O)[C@@H]2O)[C@H](O)[C@H](O)[C@H]1O` [ARDISIANOSIDE K] has an IC50 [7] greater than 100 µM, an IC50 (HepG2) greater than 100 µM and an IC50 (Bel-7402 [22]) greater than 100 µM.
